Test system: 624824-186-R-J2-PDC multicell spheroids, viability
Assay: Anticancer human tumor 624824-186-R-J2-PDC patient-derived colon adenocarcinoma cell line growth inhibition [PI3K]
Details: for IC50: curve of first compound; for viability, T/C: stronger effect = lower value
In short: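 Tumor cells grown as multi-cell spheroids with HUVEC endothelial cells and MSC fibroblast-like stroma were treated with targeted agents combined with inavolisib, alpelisib, duvelisib or copanlisib. Doses fell in half-log steps from near clinical Cmax, else from 10 microM. Viability was measured.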

[1] = second compound 0.0316 µM, first compound 0.0316 µM
[2] = second compound 0.0316 µM, first compound 0.1 µM
[3] = second compound 0.0316 µM, first compound 0.316 µM
[4] = second compound 0.0316 µM, first compound 1 µM
[5] = second compound 0.0316 µM, first compound 3.16 µM
[6] = second compound 0.0316 µM, first compound 10 µM
[7] = second compound 0.1 µM, first compound 0.0316 µM
[8] = second compound 0.1 µM, first compound 0.1 µM
[9] = second compound 0.1 µM, first compound 0.316 µM
[10] = second compound 0.1 µM, first compound 1 µM
[11] = second compound 0.1 µM, first compound 3.16 µM
[12] = second compound 0.1 µM, first compound 10 µM
[13] = second compound 0.316 µM, first compound 0.0316 µM
[14] = second compound 0.316 µM, first compound 0.1 µM
[15] = second compound 0.316 µM, first compound 0.316 µM
[16] = second compound 0.316 µM, first compound 1 µM
[17] = second compound 0.316 µM, first compound 3.16 µM
[18] = second compound 0.316 µM, first compound 10 µM
[19] = second compound 1 µM, first compound 0.0316 µM
[20] = second compound 1 µM, first compound 0.1 µM
[21] = second compound 1 µM, first compound 0.316 µM
[22] = second compound 1 µM, first compound 1 µM
[23] = second compound 1 µM, first compound 3.16 µM
[24] = second compound 1 µM, first compound 10 µM
[25] = second compound 3.16 µM, first compound 0.0316 µM
[26] = second compound 3.16 µM, first compound 0.1 µM
[27] = second compound 3.16 µM, first compound 0.316 µM
[28] = second compound 3.16 µM, first compound 1 µM
[29] = second compound 3.16 µM, first compound 3.16 µM
[30] = second compound 3.16 µM, first compound 10 µM
[31] = second compound 10 µM, first compound 0.0316 µM
[32] = second compound 10 µM, first compound 0.1 µM
[33] = second compound 10 µM, first compound 0.316 µM
[34] = second compound 10 µM, first compound 1 µM
[35] = second compound 10 µM, first compound 3.16 µM
[36] = second compound 10 µM, first compound 10 µM
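Also: spheroids exposed to agents for 7 days before viability read.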
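For viability, T/C in this document: 100% = DMSO vehicle treated spheroids.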

SMILES: CC1(C)CCC(CN2CCN(c3ccc(C(=O)NS(=O)(=O)c4ccc(NCC5CCOCC5)c([N+](=O)[O-])c4)c(Oc4cnc5[nH]ccc5c4)c3)CC2)=C(c2ccc(Cl)cc2)C1 + CC(Nc1ncnc2nc[nH]c12)c1cc2cccc(Cl)c2c(=O)n1-c1ccccc1
- IC50 (second compound 0.0316 µM): > 10 µM
- IC50 (second compound 0.1 µM): > 10 µM
- IC50 (second compound 0.316 µM): > 10 µM
- IC50 (second compound 1 µM): > 10 µM
- IC50 (second compound 3.16 µM): > 10 µM
- IC50 (second compound 10 µM): > 10 µM
- viability, T/C [1]: 89.4%
- viability, T/C [2]: 98.6%
- viability, T/C [3]: 77.3%
- viability, T/C [4]: 81.7%
- viability, T/C [5]: 71.6%
- viability, T/C [6]: 58.4%
- viability, T/C [7]: 103%
- viability, T/C [8]: 90.7%
- viability, T/C [9]: 91.1%
- viability, T/C [10]: 67.6%
- viability, T/C [11]: 67.2%
- viability, T/C [12]: 58.2%
- viability, T/C [13]: 88.3%
- viability, T/C [14]: 90.7%
- viability, T/C [15]: 68.4%
- viability, T/C [16]: 79.2%
- viability, T/C [17]: 63.1%
- viability, T/C [18]: 79%
- viability, T/C [19]: 86.3%
- viability, T/C [20]: 92.3%
- viability, T/C [21]: 80.2%
- viability, T/C [22]: 66.5%
- viability, T/C [23]: 77%
- viability, T/C [24]: 80.4%
- viability, T/C [25]: 88.5%
- viability, T/C [26]: 106%
- viability, T/C [27]: 73%
- viability, T/C [28]: 78.9%
- viability, T/C [29]: 86%
- viability, T/C [30]: 106%
- viability, T/C [31]: 103%
- viability, T/C [32]: 102%
- viability, T/C [33]: 108%
- viability, T/C [34]: 82.2%
- viability, T/C [35]: 92.2%
- viability, T/C [36]: 87%

SMILES: CCCS(=O)(=O)Nc1ccc(F)c(C(=O)c2c[nH]c3ncc(-c4ccc(Cl)cc4)cc23)c1F + CC(Nc1ncnc2nc[nH]c12)c1cc2cccc(Cl)c2c(=O)n1-c1ccccc1
- IC50 (second compound 0.0316 µM): > 10 µM
- IC50 (second compound 0.1 µM): 8.61 µM
- IC50 (second compound 0.316 µM): > 10 µM
- IC50 (second compound 1 µM): 9.47 µM
- IC50 (second compound 3.16 µM): > 10 µM
- IC50 (second compound 10 µM): 6.82 µM
- viability, T/C [1]: 90.2%
- viability, T/C [2]: 74.8%
- viability, T/C [3]: 92.9%
- viability, T/C [4]: 84%
- viability, T/C [5]: 133%
- viability, T/C [6]: 66.6%
- viability, T/C [7]: 108%
- viability, T/C [8]: 80.1%
- viability, T/C [9]: 90%
- viability, T/C [10]: 74.8%
- viability, T/C [11]: 128%
- viability, T/C [12]: 43%
- viability, T/C [13]: 113%
- viability, T/C [14]: 85.1%
- viability, T/C [15]: 72.8%
- viability, T/C [16]: 111%
- viability, T/C [17]: 130%
- viability, T/C [18]: 65.5%
- viability, T/C [19]: 83.5%
- viability, T/C [20]: 65.2%
- viability, T/C [21]: 81%
- viability, T/C [22]: 103%
- viability, T/C [23]: 125%
- viability, T/C [24]: 47.8%
- viability, T/C [25]: 110%
- viability, T/C [26]: 88.1%
- viability, T/C [27]: 70.1%
- viability, T/C [28]: 77.3%
- viability, T/C [29]: 109%
- viability, T/C [30]: 52.9%
- viability, T/C [31]: 112%
- viability, T/C [32]: 95%
- viability, T/C [33]: 80.3%
- viability, T/C [34]: 79.9%
- viability, T/C [35]: 83.4%
- viability, T/C [36]: 35.2%

SMILES: C[C@@H](NC(=O)c1ncnc(N)c1Cl)c1ncc(C(=O)Nc2cc(C(F)(F)F)c(Cl)cn2)s1 + CC(Nc1ncnc2nc[nH]c12)c1cc2cccc(Cl)c2c(=O)n1-c1ccccc1
- IC50 (second compound 0.0316 µM): > 10 µM
- IC50 (second compound 0.1 µM): > 10 µM
- IC50 (second compound 0.316 µM): > 10 µM
- IC50 (second compound 1 µM): > 10 µM
- IC50 (second compound 3.16 µM): > 10 µM
- IC50 (second compound 10 µM): > 10 µM
- viability, T/C [1]: 94%
- viability, T/C [2]: 106%
- viability, T/C [3]: 78.6%
- viability, T/C [4]: 69.9%
- viability, T/C [5]: 55.4%
- viability, T/C [6]: 67.2%
- viability, T/C [7]: 85.3%
- viability, T/C [8]: 82.3%
- viability, T/C [9]: 81.1%
- viability, T/C [10]: 67.7%
- viability, T/C [11]: 57%
- viability, T/C [12]: 56%
- viability, T/C [13]: 100%
- viability, T/C [14]: 99.3%
- viability, T/C [15]: 89.8%
- viability, T/C [16]: 65.4%
- viability, T/C [17]: 55.9%
- viability, T/C [18]: 58%
- viability, T/C [19]: 110%
- viability, T/C [20]: 85.6%
- viability, T/C [21]: 87.3%
- viability, T/C [22]: 63.1%
- viability, T/C [23]: 55%
- viability, T/C [24]: 54.1%
- viability, T/C [25]: 94.5%
- viability, T/C [26]: 93.9%
- viability, T/C [27]: 65.4%
- viability, T/C [28]: 65.6%
- viability, T/C [29]: 54.7%
- viability, T/C [30]: 59.6%
- viability, T/C [31]: 95.9%
- viability, T/C [32]: 92%
- viability, T/C [33]: 99.9%
- viability, T/C [34]: 77.2%
- viability, T/C [35]: 65.7%
- viability, T/C [36]: 57.8%

— PubChem BioAssay AID1963975 (Molecular Pharmacology Branch, DTP, NCI, 2024)
